A value given as a limit tells only on which side of the number the result lay.

As a reminder, the melting point is the temperature of the solid-liquid transition.

One data set concerns pentagastrin-stimulated acid secretion of the perfused rat stomach. Description: Secretion-inhibiting action on the perfused rat stomach (pentagastrin-stimulated acid secretion). Type of data set: in vivo. As to conditions: anesthetized CD rat, dose 3.0 μmol/kg i.d. The source says: In Table A which follows, the influence of the compounds of the formula 1 according to the invention on the pentagastrin-stimulated acid secretion of the perfused rat stomach after intraduodenal administration in vivo is shown.
The abdomen of anesthetized rats (CD rat, female, 200-250 g; 1.5 g/kg i.m. urethane) was opened after tracheotomy by a median upper abdominal incision and a PVC catheter was fixed transorally in the esophagus and another via the pylorus such that the ends of the tubes just projected into the gastric lumen. The catheter leading from the pylorus led outward into the right abdominal wall through a side opening.
After thorough rinsing (about 50-100 ml), warm (37° C.) physiological NaCl solution was continuously passed through the stomach (0.5 ml/min, pH 6.8-6.9; Braun-Unita I). The pH (pH meter 632, glass electrode EA 147; φ=5 mm, Metrohm) and, by titration with a freshly prepared 0.01 N NaOH solution to pH 7 (Dosimat 665 Metrohm), the secreted HCl were determined in the effluent in each case collected at an interval of 15 minutes.
The gastric secretion was stimulated by continuous infusion of […] (=1.65 ml/h) of i.v. pentagastrin (left femoral vein) about 30 min after the end of the operation (i.e. after determination of 2 preliminary fractions). The substances to be tested were administered intraduodenally in a 2.5 ml/kg liquid volume 60 min after the start of the continuous pentagastrin infusion. The body temperature of the animals was kept at a constant 37.8-38° C. by infrared irradiation and heat pads (automatic, stepless control by means of a rectal temperature sensor).
`CCc1cccc(C)c1CNc1ccnc2c1nc(C)n2C` [Example 1, 7-(2-Ethyl-6-methylbenzyl)amino-2,3-dimethyl-3H-imidazo[4,5-b]pyridine]: the “Inhibition of acid secretion (%)” value is greater than 30%. With `CCc1cccc(C)c1CNc1cc(C(=O)N(C)C)nc2c1nc(C)n2C` [Example 2, 5-(Dimethylaminocarbonyl)-7-(2-ethyl-6-methylbenzyl)amino-2,3-dimethyl-3H-imidazo[4,5-b]pyridine], the “Inhibition of acid secretion (%)” value is given as greater than 30%. Regarding `CCc1cccc(C)c1CNc1cc(C(N)=O)nc2c1nc(C)n2C` [Example 3, 5-(Aminocarbonyl)-7-(2-ethyl-6-methylbenzyl)amino-2,3-dimethyl-3H-imidazo[4,5-b]pyridine], the “Inhibition of acid secretion (%)” value is listed as greater than 30%. The same measure, in the same setting: to `CCc1cccc(C)c1CNc1cc(C(=O)NCCO)nc2c1nc(C)n2C` [Example 5, 7-(2-Ethyl-6-methylbenzyl)amino-5-(2-hydroxyethylaminocarbonyl)-2,3-dimethyl-3H-imidazo[4,5-b]pyridine] belongs greater than 30%.

As to `CCc1cccc(C)c1CNc1cc(OC)nc2c1nc(C)n2C` [Example 6, 7-(2-Ethyl-6-methylbenzyl)amino-5-methoxy-2,3-dimethyl-3H-imidazo[4,5-b]pyridine], the “Inhibition of acid secretion (%)” value is given as greater than 30%.

Tested on in a further data set: not given
Test: not given
Conditions: not given
Consider `CCc1cccc(C)c1CNc1ccnc2c1nc(C)n2C` [Example 1, 7-(2-Ethyl-6-methylbenzyl)amino-2,3-dimethyl-3H-imidazo[4,5-b]pyridine], for which the melting point was 105 to 109 °C. In turn, `CCc1cccc(C)c1CNc1cc(C(=O)O)nc2c1nc(C)n2C` [Example 10, 7-(2-ethyl-6-methylbenzyl)amino-2,3-dimethyl-3H-imidazo[4,5-b]pyridine-5-carboxylic Acid] displayed a melting point of 235 to 238 °C.

The values are drawn from patent US20080119510A1, “Substituted Imidazo [4,5-B] Pyridines As Inhibitors Of Gastric Acid Secretion” (Altana Pharma AG, priority 2004, published 2008).
